Results taken from patent US8546421B1, “Oncogenic-RAS-signal dependent lethal compounds” (The Trustees of Columbia University in the City of New York, priority 2007, dated 2013).
In brackets after ≈: the same amount, converted by molar mass. Where two headings read alike, the source gives them in different places.

How the values were obtained:
Calu-1 = experiment: Alamar Blue assay, additional cell lines; type: cell-based, human; details: for Maximum Inhibition % / GI50: Calu-1, Non-small cell lung carcinoma, Alamar Blue
Excerpt: (§1) The results of this additional testing are summarized in Tables 7-10 (no additional cell lines were identified as sensitive for Compound 3). […] The tumor type, cell line, maximum percentage inhibition, the concentration of compound required to inhibit cell growth by 50%, and RAS mutation (if any) are also summarized.

PaCa-2 = experiment: Alamar Blue assay, additional cell lines; type: cell-based, human; details: Pancreatic Cancer; for GI50: Homo sapiens
Excerpt: as §1

[1] = tested on: BJ-TERT/LT/ST/RAS^V12 cells; experiment: Alamar blue growth inhibition in dilution series; type: cell-based, human
[2] = tested on: A549, Calu-1, PaCa, and HCT116 cells; experiment: Alamar blue assay in KRAS-mutation-harboring cancer cells; type: cell-based, human
Procedure: A549, Calu-1, HCT116 and MIA PaCa-2 cell lines have an oncogenic mutation in the KRAS gene. Compounds which tested positive in the oncogenic HRAS primary screen were also tested for their selectivity against oncogenic KRAS which is more commonly mutated in human cancers.

NCI-H23 = experiment: NCI60 anti-cancer screening; details: for GI50 / CC50: Homo sapiens; for GI50 / GI 100%: NCI-H23; for CC50: NCI-H23, read-out: LC 50%; for GI 100%: Non-small cell lung carcinoma
HCT-116 = experiment: NCI60 anti-cancer screening; details: for GI 100% / GI50: HCT-116; for GI 100%: Colon Cancer; for GI50 / CC50: Homo sapiens; for CC50: HCT-116, read-out: LC 50%
LOX IMVI = experiment: NCI60 anti-cancer screening; details: for GI50 / CC50: Homo sapiens; for CC50: read-out: LC 50%; for GI 100%: Melanoma
M14 = experiment: NCI60 anti-cancer screening; details: for GI50 / CC50: Homo sapiens; for GI50 / GI 100%: M14; for CC50: M14, read-out: LC 50%; for GI 100%: Melanoma
SK-MEL-2 = experiment: NCI60 anti-cancer screening; details: for GI50 / CC50: Homo sapiens; for GI50 / GI 100%: SK-MEL-2; for CC50: SK-MEL-2, read-out: LC 50%; for GI 100%: Melanoma
UACC-257 = experiment: NCI60 anti-cancer screening; details: for GI50 / CC50: Homo sapiens; for GI50 / GI 100%: UACC-257; for CC50: UACC-257, read-out: LC 50%; for GI 100%: Melanoma
786-0 = experiment: NCI60 anti-cancer screening; details: for GI 100% / GI50: 786-0; for GI 100%: Renal Cancer; for GI50 / CC50: Homo sapiens; for CC50: 786-0, read-out: LC 50%
A498 = experiment: NCI60 anti-cancer screening; details: for GI 100% / GI50: A498; for GI 100%: Renal Cancer; for GI50 / CC50: Homo sapiens; for CC50: A498, read-out: LC 50%
ACHN = experiment: NCI60 anti-cancer screening; details: for GI50 / CC50: Homo sapiens; for CC50: read-out: LC 50%; for GI 100%: Renal Cancer
RXF393 = experiment: NCI60 anti-cancer screening; details: for GI50 / CC50: Homo sapiens; for GI50: RXF 393; for CC50: RXF 393, read-out: LC 50%; for GI 100%: RXF393, Renal Cancer
PC-3 = experiment: NCI60 anti-cancer screening; details: for GI50 / CC50: Homo sapiens; for GI50 / GI 100%: PC-3; for CC50: PC-3, read-out: LC 50%; for GI 100%: Prostate Cancer
NCI/ADR-RES = experiment: NCI60 anti-cancer screening; details: for GI 100%: Breast Cancer; for GI50 / CC50: Homo sapiens; for CC50: read-out: LC 50%
MDA-MB-231/ATCC = experiment: NCI60 anti-cancer screening; details: for GI50 / CC50: Homo sapiens; for GI50: MDA-MB-231; for CC50: MDA-MB-231, read-out: LC 50%; for GI 100%: MDA-MB-231/ATCC, Breast Cancer
MDA-MB-435 = experiment: NCI60 anti-cancer screening; details: for GI50 / CC50: Homo sapiens; for GI50 / GI 100%: MDA-MB-435; for CC50: MDA-MB-435, read-out: LC 50%; for GI 100%: Breast Cancer
BT-549 = experiment: NCI60 anti-cancer screening; details: for GI 100% / GI50: BT-549; for GI 100%: Breast Cancer; for GI50 / CC50: Homo sapiens; for CC50: BT-549, read-out: LC 50%
[3] = tested on: BJ cell system (BJ-TERT, BJ-TERT/LT/ST, BJ-TERT/LT/ST/RAS^V12, DRD cells); experiment: Alamar blue potency and selectivity in the engineered BJ cell system; details: alamar blue
Procedure: Empty “step-daughter plates” were filled with 50 μL DMEM, except for columns 3 and 13, where 100 μL of hit compound solution were cherry-picked from daughter plates. After compound transfer, 2-fold dilution series across columns 3 through 12 and columns 13 through 22 was made by transferring 50 μL of compound solution to the next column successively (10-point dilution series), with extensive mixing. Hit-picking and 2-fold dilution series were carried out using Biomek FX Span-8 module (Beckman Coulter). Assay plates were prepared by seeding 1,000 BJ-TERT, BJ-TERT/LT/ST, and BJ-TERT/LT/ST/RAS^V12 cells per well in 36 μL growth medium. Cells in assay plates were treated with compounds from step-daughter plates by transferring 4 μL. The final concentration of the compound was 5.33 μg/mL to 0.01 μg/mL in this 10-point, 2-fold dilution series. Assay plates were returned to the culture incubator and maintained for 48 hours before adding alamar blue.
Fresh daughter plates were made from the mother plate and cherry-picked hits from the first round, 2-fold dilution series experiment as described above. Assay plates were prepared by seeding 1,000 BJ-TERT, BJ-TERT/LT/ST, BJ-TERT/LT/ST/RAS^V12 or BJ-TERT/p53DD/CDK4/cyclinD1/ST/RAS^V12 (DRD) cells per well in 32 μL growth media. Cells in the assay plates were treated with compounds from the step-daughter plate by transferring 8 μL solution. The final concentration of the compound was 10.66 μg/mL to 0.02 μg/mL in a 10-point, 2-fold dilution series manner. Assay plates were returned to the culture incubator and maintained for 48 hours before adding alamar blue.
Cells were seeded in 384-well assay plates, treated with candidate compounds, and incubated in the culture incubator in 40 μL culture volume per well. […] Plates were incubated further for 16 hours to allow reduction of alamar blue, which results in the generation of red fluorescence. The fluorescence intensity was determined using a Victor 3 plate reader (Perkin Elmer) with a 535 nm excitation filter and a 590 nm emission filter.
In the subsequent two-fold dilution series testing, selectivity was calculated as the ratio of GI50 values in BJ-TERT/LT/ST and BJ-TERT/LT/ST/RAS^V12 cells. […] DRD cells are also derived from BJ primary cells and the effects of mutations in both lines should be similar.

`C=C1CCC2C(C)(C)CCC[C@]2(C)C1CC/C(C)=C\CC/C(C)=N/NC(N)=S` (stereo partly drawn) [Compound 36] was tested, and the “Maximum Inhibition %” value (Calu-1) was 100%, the GI50 (Calu-1; Homo sapiens) was 300 nM and the GI50 (PaCa-2) was 1500 nM. For the same compound, the “Maximum Inhibition %” value (PaCa-2) was 100%, the IC90 ([1]; Homo sapiens, alamar blue) was 1 µg/mL (≈ 2.48 µM) and the “activity in KRAS-mutation-harboring cancer cells (in words)” value [2] was “active”. The GI50 (NCI-H23) was 440 nM, the CC50 (NCI-H23) was 4230 nM and the “GI 100%” value (NCI-H23) was 1.65 µM. For the same compound, the “GI 100%” value (HCT-116) was 1.11 µM, the GI50 (HCT-116) was 252 nM and the CC50 (HCT-116) was 3320 nM. For the same compound, the GI50 (LOX IMVI) was 203 nM, the CC50 (LOX IMVI) was 1320 nM and the “GI 100%” value (LOX IMVI) was 0.478 µM. For the same compound, the GI50 (M14) was 384 nM, the CC50 (M14) was 4800 nM and the “GI 100%” value (M14) was 1.59 µM. The GI50 (SK-MEL-2) was 297 nM, the CC50 (SK-MEL-2) was 4930 nM and the “GI 100%” value (SK-MEL-2) was 1.01 µM. The GI50 (UACC-257) was 1260 nM, the CC50 (UACC-257) was 6990 nM and the “GI 100%” value (UACC-257) was 2.97 µM. The “GI 100%” value (786-0) was 0.907 µM, the GI50 (786-0) was 252 nM and the CC50 (786-0) was 3020 nM. For the same compound, the “GI 100%” value (A498) was 1.29 µM, the GI50 (A498) was 268 nM and the CC50 (A498) was 3850 nM. For the same compound, the GI50 (ACHN) was 366 nM, the CC50 (ACHN) was 3780 nM and the “GI 100%” value (ACHN) was 1.43 µM. For the same compound, the GI50 (RXF393) was 181 nM, the CC50 (RXF393) was 2490 nM and the “GI 100%” value (RXF393) was 0.485 µM. For the same compound, the GI50 (PC-3) was 548 nM, the CC50 (PC-3) was 4260 nM and the “GI 100%” value (PC-3) was 1.82 µM. For the same compound, the “GI 100%” value (NCI/ADR-RES) was 2.34 µM, the GI50 (NCI/ADR-RES) was 1040 nM and the CC50 (NCI/ADR-RES) was 5270 nM. The GI50 (MDA-MB-231/ATCC) was 341 nM, the CC50 (MDA-MB-231/ATCC) was 3270 nM and the “GI 100%” value (MDA-MB-231/ATCC) was 1.36 µM. The GI50 (MDA-MB-435) was 175 nM, the CC50 (MDA-MB-435) was 3000 nM and the “GI 100%” value (MDA-MB-435) was 0.781 µM. For the same compound, the “GI 100%” value (BT-549) was 1.3 µM, the GI50 (BT-549) was 302 nM and the CC50 (BT-549) was 4070 nM. The “degree of selectivity between BJ-TERT/LT/ST/RAS^V12 and BJ-TERT” value [3] was “up to 16 fold” and the “growth inhibitory activity and selectivity in the BJ cell system (in words)” value ([3]; structural analogs and hits) was “slightly lower potency and selectivity than the original hit”.

`COC(=O)c1ccc(C2c3[nH]c4ccccc4c3CC(C(=O)OC)N2C(=O)CCl)cc1` (stereo not drawn) [Compound 27] was tested, and the “Maximum Inhibition %” value (Calu-1) was 100%, the “IC90 (in words)” value (Calu-1; Calu-1 cells, alamar blue) was “single-digit nanomolar range” and the GI50 (Calu-1; Homo sapiens) was 1 nM. For the same compound, the IC50 (Calu-1; Homo sapiens, Calu-1 cells, treated for 24 hour, alamar blue) was 0.02 µg/mL (≈ 0.0454 µM), the GI50 (PaCa-2) was 125 nM and the “Maximum Inhibition %” value (PaCa-2) was 100%. The “concentration at which growth was inhibited (as low as)” value [1] was no less than 0.01 µg/mL, the “concentration at which growth was inhibited (as low as)” value ([1]; 48 hours) was no less than 0.01 µg/mL and the “activity in KRAS-mutation-harboring cancer cells (in words)” value [2] was “active in all oncogenic-KRAS-harboring cancer cell lines tested”. The GI50 (NCI-H23) was 1150 nM, the CC50 (NCI-H23) was 7590 nM and the “GI 100%” value (NCI-H23) was 2.95 µM. For the same compound, the “GI 100%” value (HCT-116) was 1.48 µM, the GI50 (HCT-116) was 364 nM and the CC50 (HCT-116) was 3840 nM. The GI50 (LOX IMVI) was 182 nM, the CC50 (LOX IMVI) was 826 nM and the “GI 100%” value (LOX IMVI) was 0.387 µM. The GI50 (M14) was 1070 nM, the CC50 (M14) was 4750 nM and the “GI 100%” value (M14) was 2.25 µM. The GI50 (SK-MEL-2) was 1740 nM, the CC50 (SK-MEL-2) was 9820 nM and the “GI 100%” value (SK-MEL-2) was 4.13 µM. For the same compound, the GI50 (UACC-257) was 1370 nM, the CC50 (UACC-257) was greater than 10000 nM and the “GI 100%” value (UACC-257) was 7.46 µM. For the same compound, the “GI 100%” value (786-0) was 0.473 µM, the GI50 (786-0) was 60.3 nM and the CC50 (786-0) was 2520 nM. The “GI 100%” value (A498) was 4.52 µM, the GI50 (A498) was 1830 nM and the CC50 (A498) was greater than 10000 nM. For the same compound, the GI50 (ACHN) was 187 nM, the CC50 (ACHN) was 3250 nM and the “GI 100%” value (ACHN) was 1.05 µM. For the same compound, the GI50 (RXF393) was 1300 nM, the CC50 (RXF393) was 6930 nM and the “GI 100%” value (RXF393) was 3 µM. For the same compound, the GI50 (PC-3) was 231 nM, the CC50 (PC-3) was 3290 nM and the “GI 100%” value (PC-3) was 1.08 µM. For the same compound, the “GI 100%” value (NCI/ADR-RES) was greater than 10 µM, the GI50 (NCI/ADR-RES) was 2560 nM and the CC50 (NCI/ADR-RES) was greater than 10000 nM. The GI50 (MDA-MB-231/ATCC) was 1200 nM, the CC50 (MDA-MB-231/ATCC) was 9180 nM and the “GI 100%” value (MDA-MB-231/ATCC) was 3.32 µM. For the same compound, the GI50 (MDA-MB-435) was 1710 nM, the CC50 (MDA-MB-435) was 8190 nM and the “GI 100%” value (MDA-MB-435) was 3.74 µM. For the same compound, the “GI 100%” value (BT-549) was 0.316 µM, the GI50 (BT-549) was 131 nM and the CC50 (BT-549) was 765 nM. The “degree of selectivity against HRAS^G12V” value ([3]; oncogenic-RAS-expressing vs non-oncogenic-RAS-expressing BJ cells) was “four-fold”.
